Laboratory results from ChEMBL document CHEMBL1909046, “DrugMatrix in vitro pharmacology data”.

Legend:
[1] = molecular target: Matrix metalloproteinase-9 (Homo sapiens, UniProt P14780); test: biochemical; type: cell-based;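 further: inhibition of isolated MMP-9 enzyme activity toward a synthetic peptide substrate, from the DrugMatrix protease screening panel; in other assays of this panel Not Active means under 50% inhibition at 10 µM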
[2] = molecular target: Sigma non-opioid intracellular receptor 1 (Homo sapiens, UniProt Q99720); test: DRUGMATRIX: Sigma1 radioligand binding (ligand: [3H] Haloperidol); type: cell membranes, Jurkat, Membrane; details: jurkat; Not Active = under 50% inhibition at 10 µM
[3] = molecular target: T1, Polyunsaturated fatty acid lipoxygenase ALOX15 (Oryctolagus cuniculus, UniProt P12530); test: biochemical; type: tissue-based, Reticulocytes; details: reticulocytes;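 further: inhibition of 15-lipoxygenase enzyme activity measured with linoleic acid as the substrate; in other assays of this panel Not Active means under 50% inhibition at 10 µM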
T1 sequence (P12530 whole entry): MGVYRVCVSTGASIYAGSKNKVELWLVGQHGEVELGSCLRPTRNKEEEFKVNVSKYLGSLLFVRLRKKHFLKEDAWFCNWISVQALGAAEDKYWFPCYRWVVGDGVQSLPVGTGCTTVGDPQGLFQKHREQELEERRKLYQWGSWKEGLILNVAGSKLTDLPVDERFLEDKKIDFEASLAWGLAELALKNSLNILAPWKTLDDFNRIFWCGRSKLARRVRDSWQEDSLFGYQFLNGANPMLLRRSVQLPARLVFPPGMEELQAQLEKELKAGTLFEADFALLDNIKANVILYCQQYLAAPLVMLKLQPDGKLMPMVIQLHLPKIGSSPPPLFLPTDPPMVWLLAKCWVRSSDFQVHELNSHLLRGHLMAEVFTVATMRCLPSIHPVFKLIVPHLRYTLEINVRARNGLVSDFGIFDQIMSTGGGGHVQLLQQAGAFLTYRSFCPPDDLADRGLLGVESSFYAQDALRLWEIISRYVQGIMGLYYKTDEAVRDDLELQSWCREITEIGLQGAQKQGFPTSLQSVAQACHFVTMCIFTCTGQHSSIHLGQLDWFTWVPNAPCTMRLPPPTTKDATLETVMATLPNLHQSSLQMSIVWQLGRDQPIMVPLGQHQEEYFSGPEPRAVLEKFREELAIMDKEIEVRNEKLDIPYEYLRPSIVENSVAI

[4] = molecular target: T2, Type-2 angiotensin II receptor (Homo sapiens, UniProt P50052); type: cell-based; details: cho-k1; further: in other assays of this panel Not Active means under 50% inhibition at 10 µM
T2 sequence (P50052 whole entry): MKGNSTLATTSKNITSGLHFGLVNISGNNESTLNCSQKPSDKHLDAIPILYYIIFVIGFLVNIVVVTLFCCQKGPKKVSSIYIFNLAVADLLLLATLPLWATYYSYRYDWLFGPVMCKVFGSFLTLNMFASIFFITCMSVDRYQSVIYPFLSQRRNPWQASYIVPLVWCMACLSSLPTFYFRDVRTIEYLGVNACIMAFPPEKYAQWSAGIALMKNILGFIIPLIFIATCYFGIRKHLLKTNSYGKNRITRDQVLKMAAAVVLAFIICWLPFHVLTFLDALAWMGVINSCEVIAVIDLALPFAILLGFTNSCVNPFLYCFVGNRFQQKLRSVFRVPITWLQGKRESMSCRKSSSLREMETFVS

[5] = molecular target: Estrogen receptor beta (Homo sapiens, UniProt Q92731); details: sf9; further: in other assays of this panel Not Active means under 50% inhibition at 10 µM
[6] = molecular target: Melanocortin receptor 5 (Homo sapiens, UniProt P33032); type: cell membranes, HEK293, Membrane; details: hek293; further: in other assays of this panel Not Active means under 50% inhibition at 10 µM
[7] = molecular target: T3, Muscarinic acetylcholine receptor M4 (Homo sapiens, UniProt P08173); type: cell membranes, CHO-K1, Membrane; details: cho-k1; further: in other assays of this panel Not Active means under 50% inhibition at 10 µM
T3 sequence (P08173 whole entry): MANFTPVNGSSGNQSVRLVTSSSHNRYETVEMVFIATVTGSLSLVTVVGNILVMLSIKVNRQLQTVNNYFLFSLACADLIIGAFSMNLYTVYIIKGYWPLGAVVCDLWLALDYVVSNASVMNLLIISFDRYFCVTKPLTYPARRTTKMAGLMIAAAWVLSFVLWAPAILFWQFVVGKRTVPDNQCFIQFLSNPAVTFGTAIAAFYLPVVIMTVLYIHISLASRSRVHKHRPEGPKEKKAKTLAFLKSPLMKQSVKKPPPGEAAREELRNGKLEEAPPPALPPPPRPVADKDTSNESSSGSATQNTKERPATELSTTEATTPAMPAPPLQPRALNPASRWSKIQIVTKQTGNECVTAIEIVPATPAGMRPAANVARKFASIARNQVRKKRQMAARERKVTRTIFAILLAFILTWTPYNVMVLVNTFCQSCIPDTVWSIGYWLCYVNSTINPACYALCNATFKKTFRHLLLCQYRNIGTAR

Sequence of Melanocortin receptor 5 (P33032 whole entry): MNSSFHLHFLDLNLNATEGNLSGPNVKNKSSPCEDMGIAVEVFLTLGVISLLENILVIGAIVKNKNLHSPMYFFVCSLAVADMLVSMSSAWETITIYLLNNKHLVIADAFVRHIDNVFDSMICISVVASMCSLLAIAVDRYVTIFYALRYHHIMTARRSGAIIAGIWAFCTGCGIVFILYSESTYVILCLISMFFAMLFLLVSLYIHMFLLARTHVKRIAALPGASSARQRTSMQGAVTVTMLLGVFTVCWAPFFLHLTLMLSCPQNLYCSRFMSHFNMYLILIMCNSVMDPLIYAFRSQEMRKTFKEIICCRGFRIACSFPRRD
Sequence of Estrogen receptor beta (Q92731 whole entry): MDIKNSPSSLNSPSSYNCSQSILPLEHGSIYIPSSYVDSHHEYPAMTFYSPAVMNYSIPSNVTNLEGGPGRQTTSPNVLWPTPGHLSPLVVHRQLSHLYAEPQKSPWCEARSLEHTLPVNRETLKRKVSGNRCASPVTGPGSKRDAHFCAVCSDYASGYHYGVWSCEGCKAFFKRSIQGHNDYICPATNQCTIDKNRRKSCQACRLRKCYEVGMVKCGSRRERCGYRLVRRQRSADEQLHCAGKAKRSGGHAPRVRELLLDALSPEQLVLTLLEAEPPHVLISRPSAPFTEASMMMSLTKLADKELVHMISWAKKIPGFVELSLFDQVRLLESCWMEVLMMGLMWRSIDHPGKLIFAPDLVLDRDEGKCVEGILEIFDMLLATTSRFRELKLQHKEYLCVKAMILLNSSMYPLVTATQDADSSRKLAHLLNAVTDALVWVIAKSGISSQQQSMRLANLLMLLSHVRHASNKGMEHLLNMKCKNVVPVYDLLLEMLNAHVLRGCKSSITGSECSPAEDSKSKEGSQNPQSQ
Sequence of Matrix metalloproteinase-9 (P14780 whole entry): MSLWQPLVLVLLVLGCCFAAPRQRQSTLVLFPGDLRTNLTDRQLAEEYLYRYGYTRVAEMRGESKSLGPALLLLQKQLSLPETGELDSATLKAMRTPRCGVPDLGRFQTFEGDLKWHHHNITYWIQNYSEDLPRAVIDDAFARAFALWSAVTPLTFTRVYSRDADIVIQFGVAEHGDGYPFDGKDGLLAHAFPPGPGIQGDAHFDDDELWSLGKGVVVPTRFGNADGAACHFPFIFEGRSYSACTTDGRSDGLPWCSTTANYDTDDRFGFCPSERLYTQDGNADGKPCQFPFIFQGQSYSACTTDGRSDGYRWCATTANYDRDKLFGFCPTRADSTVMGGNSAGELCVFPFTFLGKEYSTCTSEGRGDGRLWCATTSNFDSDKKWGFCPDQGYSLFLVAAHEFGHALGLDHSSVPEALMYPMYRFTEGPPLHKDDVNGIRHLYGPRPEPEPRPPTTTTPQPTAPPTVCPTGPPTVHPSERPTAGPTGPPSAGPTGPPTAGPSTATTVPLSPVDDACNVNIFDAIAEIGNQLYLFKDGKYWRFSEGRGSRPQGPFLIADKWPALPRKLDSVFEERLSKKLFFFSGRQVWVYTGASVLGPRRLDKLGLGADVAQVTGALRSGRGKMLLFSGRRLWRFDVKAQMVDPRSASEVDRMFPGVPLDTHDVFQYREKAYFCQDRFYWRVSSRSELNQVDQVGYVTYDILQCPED
Sequence of Sigma non-opioid intracellular receptor 1 (Q99720 whole entry): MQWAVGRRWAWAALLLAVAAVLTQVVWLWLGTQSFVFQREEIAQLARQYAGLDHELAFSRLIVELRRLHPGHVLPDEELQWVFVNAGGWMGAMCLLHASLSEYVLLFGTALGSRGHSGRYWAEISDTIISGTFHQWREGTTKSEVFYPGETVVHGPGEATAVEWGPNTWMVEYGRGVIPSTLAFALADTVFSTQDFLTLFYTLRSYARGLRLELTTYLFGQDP

CC(C(=O)O)c1ccc(-c2ccccc2)c(F)c1 (stereo unspecified) [FLURBIPROFEN]
Not Active: IC50 [1] | IC50 [2] | IC50 [3] | IC50 [4] | IC50 [5] | IC50 [6] | IC50 [7]

Cc1cn[nH]c1 [FOMEPIZOLE]
Not Active: IC50 [1] | IC50 [2] | IC50 [3] | IC50 [4] | IC50 [5] | IC50 [6] | IC50 [7]

NC[C@@H]1O[C@H](O[C@H]2[C@@H](O)[C@H](O[C@@H]3[C@@H](O)[C@H](N)C[C@H](N)[C@H]3O[C@H]3O[C@H](CN)[C@@H](O)[C@H](O)[C@H]3N)O[C@@H]2CO)[C@H](N)[C@@H](O)[C@@H]1O [FRAMYCETIN]
Not Active: IC50 [1] | IC50 [2] | IC50 [3] | IC50 [4] | IC50 [5] | IC50 [6] | IC50 [7]

C[C@H]([C@](O)(Cn1cncn1)c1ccc(F)cc1F)S(C)(=O)=O [GENACONAZOLE]
Not Active: IC50 [1] | IC50 [2] | IC50 [3] | IC50 [4] | IC50 [5] | IC50 [6] | IC50 [7]

Cc1cnc(C(=O)NCCc2ccc(S(=O)(=O)NC(=O)NC3CCCCC3)cc2)cn1 [GLIPIZIDE]
Not Active: IC50 [1] | IC50 [2] | IC50 [3] | IC50 [4] | IC50 [5] | IC50 [6] | IC50 [7]

Cc1c(F)c(N2CCNC(C)C2)cc2c1c(=O)c(C(=O)O)cn2C1CC1 (stereo unspecified) [GREPAFLOXACIN]
Not Active: IC50 [1] | IC50 [2] | IC50 [3] | IC50 [4] | IC50 [5] | IC50 [6] | IC50 [7]

COc1ccccc1OCC(O)CO (stereo unspecified) [GUAIFENESIN]
Not Active: IC50 [1] | IC50 [2] | IC50 [3] | IC50 [4] | IC50 [5] | IC50 [6] | IC50 [7]

C[C@]12CCC(=O)C=C1CC[C@@H]1[C@@H]2[C@@H](O)C[C@@]2(C)[C@H]1CC[C@]2(O)C(=O)CO [HYDROCORTISONE]
Not Active: IC50 [1] | IC50 [2] | IC50 [3] | IC50 [4] | IC50 [5] | IC50 [6] | IC50 [7]

CC[C@H](C)C(=O)O[C@H]1C[C@@H](C)C=C2C=C[C@H](C)[C@H](CC[C@@H]3C[C@@H](O)CC(=O)O3)[C@H]21 [LOVASTATIN]
Not Active: IC50 [1] | IC50 [2] | IC50 [3] | IC50 [4] | IC50 [5] | IC50 [6] | IC50 [7]

CC(C(=O)O)c1ccc(CC2CCCC2=O)cc1 (stereo unspecified) [LOXOPROFEN]
Not Active: IC50 [1] | IC50 [2] | IC50 [3] | IC50 [4] | IC50 [5] | IC50 [6] | IC50 [7]

Cc1cccc(Nc2ccccc2C(=O)O)c1C [MEFENAMIC ACID]
Not Active: IC50 [1] | IC50 [2] | IC50 [3] | IC50 [4] | IC50 [5] | IC50 [6] | IC50 [7]

CN(Cc1cnc2nc(N)nc(N)c2n1)c1ccc(C(=O)N[C@@H](CCC(=O)O)C(=O)O)cc1 [METHOTREXATE]
Not Active: IC50 [1] | IC50 [2] | IC50 [3] | IC50 [4] | IC50 [5] | IC50 [6] | IC50 [7]

COC(=O)c1ccccc1O [METHYL SALICYLATE]
Not Active: IC50 [1] | IC50 [2] | IC50 [3] | IC50 [4] | IC50 [5] | IC50 [6] | IC50 [7]

COc1ccc2cc(CCC(C)=O)ccc2c1 [NABUMETONE]
Not Active: IC50 [1] | IC50 [2] | IC50 [3] | IC50 [4] | IC50 [5] | IC50 [6] | IC50 [7]

O=C(O)c1cccnc1 [NIACIN]
Not Active: IC50 [1] | IC50 [2] | IC50 [3] | IC50 [4] | IC50 [5] | IC50 [6] | IC50 [7]

CNC(=C[N+](=O)[O-])NCCSCc1csc(CN(C)C)n1 [NIZATIDINE]
Not Active: IC50 [1] | IC50 [2] | IC50 [3] | IC50 [4] | IC50 [5] | IC50 [6] | IC50 [7]

C[C@]12C/C(=C/O)C(=O)C[C@@H]1CC[C@@H]1[C@@H]2CC[C@@]2(C)[C@H]1CC[C@]2(C)O [OXYMETHOLONE]
Not Active: IC50 [1] | IC50 [2] | IC50 [3] | IC50 [4] | IC50 [5] | IC50 [6] | IC50 [7]

CC(C)(CO)C(O)C(=O)NCCCO (stereo unspecified) [PANTHENOL]
Not Active: IC50 [1] | IC50 [2] | IC50 [3] | IC50 [4] | IC50 [5] | IC50 [6] | IC50 [7]

COc1ccc(Cc2nccc3cc(OC)c(OC)cc23)cc1OC [PAPAVERINE]
Not Active: IC50 [1] | IC50 [2] | IC50 [3] | IC50 [4] | IC50 [5] | IC50 [6] | IC50 [7]

OCCN1CCN(CCCN2c3ccccc3Sc3ccc(Cl)cc32)CC1 [PERPHENAZINE]
Not Active: IC50 [1] | IC50 [2] | IC50 [3] | IC50 [4] | IC50 [5] | IC50 [6] | IC50 [7]

CCCCC1C(=O)N(c2ccccc2)N(c2ccccc2)C1=O [PHENYLBUTAZONE]
Not Active: IC50 [1] | IC50 [2] | IC50 [3] | IC50 [4] | IC50 [5] | IC50 [6] | IC50 [7]

Cc1cccc(Nc2cc(Cl)nc(SCC(=O)O)n2)c1C [PIRINIXIC ACID]
Not Active: IC50 [1] | IC50 [2] | IC50 [3] | IC50 [4] | IC50 [5] | IC50 [6] | IC50 [7]

CC[C@H](C)C(=O)O[C@H]1C[C@H](O)C=C2C=C[C@H](C)[C@H](CC[C@@H](O)C[C@@H](O)CC(=O)O)[C@H]21 [PRAVASTATIN]
Not Active: IC50 [1] | IC50 [2] | IC50 [3] | IC50 [4] | IC50 [5] | IC50 [6] | IC50 [7]

CC(C)(Sc1cc(C(C)(C)C)c(O)c(C(C)(C)C)c1)Sc1cc(C(C)(C)C)c(O)c(C(C)(C)C)c1 [PROBUCOL]
Not Active: IC50 [1] | IC50 [2] | IC50 [3] | IC50 [4] | IC50 [5] | IC50 [6] | IC50 [7]

COBALT(II) ACETYLACETONATE
Not Active: IC50 [1] | Ki [1] | IC50 [2] | Ki [2] | IC50 [3] | Ki [3] | IC50 [4] | Ki [4] | IC50 [5] | Ki [5] | IC50 [6] | Ki [6] | IC50 [7] | Ki [7]

INSULIN HUMAN
Not Active: IC50 [1] | Ki [1] | IC50 [2] | Ki [2] | IC50 [3] | Ki [3] | IC50 [4] | Ki [4] | IC50 [5] | Ki [5] | IC50 [6] | Ki [6] | IC50 [7] | Ki [7]
